Measurements taken from article PMC11989179, “Odor-Binding Protein 2 in Apis mellifera ligustica Plays Important Roles in the Response to Floral Volatiles Stimuli from Melon and Tomato Flowers” (International Journal of Molecular Sciences, 2025).

Key:
[1] = target: T1, AmelOBP2 (Apis mellifera, UniProt A0A8U0WQ64); assay: Fluorescence competitive binding assay with 1-NPN as probe; design: species or system Apis mellifera ligustica; settings: for Ki: Ki = [IC50]/(1 + [1-NPN]/K1-NPN), read-out: Ki (binding constant); for IC50: odor standard concentration at which AmelOBP2/1-NPN fluorescence is reduced to half; for binding ability to AmelOBP2 (in words): fluorescence competitive binding
T1 sequence (A0A8U0WQ64 entry or part of it): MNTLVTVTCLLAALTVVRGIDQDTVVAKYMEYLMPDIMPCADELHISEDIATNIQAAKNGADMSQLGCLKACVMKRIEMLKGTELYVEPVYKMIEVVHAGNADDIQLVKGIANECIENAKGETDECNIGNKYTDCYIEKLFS
Method: The binding ability of the recombinant protein AmelOBP2 to the 14 tomato and 25 melon floral volatiles was determined using a fluorescence competitive binding assay. The IC50 values of the odor standard compounds obtained from the fluorescence competitive binding curve (Figure 6) and the binding constant Ki between AmelOBP2 and the odor standard compounds are shown in Table 1.
(§1) The ability of AmelOBP2 to bind to floral volatiles in tomato and melon greenhouses was determined using an RF-5301PC fluorescence spectrophotometer (Shimadzu, Japan) with […] (1-NPN) (TCI, Japan) as the fluorescence probe (Table A5). The parameters of the RF-5301PC fluorescence spectrophotometer are set as follows: the emission wavelength range is 360–500 nm, the excitation wavelength is 337 nm, and the slit width is 3 nm. This process was similar to that described by Du et al.. Data were processed using GraphPad Prism 8.0. The binding constant (Ki) of AmelOBP2 and odor volatiles were computed using the following equation [26]:Ki = [IC50]/(1 + [1-NPN]/K1-NPN)
IC50 refers to the concentration of the odorant at which the fluorescence intensity of the AmelOBP2/1-NPN complex was reduced by 50%. 1-NPN refers to the concentration of unbound 1-NPN, while K1-NPN refers to the binding constant of the AmelOBP2/1-NPN complex. The smaller the Ki, the stronger the binding ability of the substance to the recombinant protein. Ki values ranging from 0 to 5µM indicate strong binding ability with AmelOBP2.

[2] = test system: Apis mellifera ligustica antennae; assay: Electroantennogram (EAG) response to compounds under RNAi silencing; format: in vivo; design: concentration or dose not given beside the values; settings: decrease of EAG response in honeybees fed siAmelOBP2
Source text: To clarify the physiological function of amelobp2 in the detection of floral volatiles in honeybees, we selected the following five volatiles: e-2-hexenal, e-2-octenal, 1-nonanal, 2-methyl-5-(1-methyl ethenyl)-cyclohexanone, and methyl benzene. Specifically, e-2-hexenal and e-2-octenal are volatiles of melon flowers; 2-methyl-5-(1-methyl ethenyl)-cyclohexanone and methyl benzene are volatiles of tomato flowers; and 1-nonanal is both a melon flower volatile and a tomato flower volatile. The antennal electrical activity of the honeybees was measured after feeding with siAmelOBP2.
Based on the results of the fluorescence competitive binding tests and our previous research involving EAG tests, odor-standard compounds were identified for testing (Table A5). The optimal siRNA and silencing time were determined by an experiment and fed to honeybees. The EAG response was measured using an EAG insect antennal potential measurement system (Syntech, Netherlands). Each measurement was repeated using three antennae. The results of the antennal potential measurements were expressed as the EAG relative response value (rEAG), which was calculated as follows:rEAG = (EAG (X) − EAG (std))/EAG (std)(1)
EAG (X) represents the response amplitude (mV) of the EAG to a given compound, while EAG (std) represents the response amplitude (mV) of the EAG to the reference liquid paraffin at each recording stage.

[3] = test system: AmelOBP2 mRNA; assay: RNAi silencing effect on AmelOBP2 mRNA after siRNA feeding (qRT-PCR); format: in vivo, Apis mellifera ligustica; settings: 8 μg per bee, 20-d-old honeybees
Method: Total RNA and cDNA were obtained according to Du et al.. The obtained cDNA was subjected to qRT-PCR using the SYBR fluorescent dye method (Takara, Japan) (Table A1). The primers were synthesized by Sangon Biotech (Table A2). Data processing refers to Livak and Schmittgen (2^−ΔΔCt method).
Honeybees were collected at 20 d of age from an apiary at the College of Animal Science, Shanxi Agricultural University. Honeybees were randomly divided into 4 groups (n = 40) and starved in an incubator for 30 min (65–70% relative humidity; 28 ± 1 °C). Honeybees were fed with siAmelOBP2 (8 μg per bee dissolved in sucrose solution); the siAmelOBP2 are recorded as siAmelOBP2-1 (79 bp) and siAmelOBP2-2 (329 bp). We used siNC and 30% sucrose solution as the controls. After feeding, the honeybees were placed back in the incubator. At 24, 48, 72, and 96 h, the honeybees were captured randomly in each group, and the silencing effect of RNAi was assessed using qRT-PCR.

[4] = target: T1, AmelOBP2; assay: Binding curve and Scatchard plot of fluorescence probe 1-NPN to recombinant AmelOBP2; design: species or system Apis mellifera ligustica; settings: Scatchard plot; excitation 337 nm, emission maximum 405 nm; read-out: binding constant between AmelOBP2 and the probe
Method: At an excitation wavelength of 337 nm, no clear fluorescence signal was observed from the AmelOBP2 protein working solution. By adding 3 μL of the 1-NPN solution to the protein working solution successively, the maximum fluorescence intensity was found at 405 nm, and the fluorescence intensity increased with the increase in the probe concentration. The resulting data were then fitted using regression and Scatchard processing to produce a combination curve and linear equation for AmelOBP2 and 1-NPN (Figure 5).
as §1

| Compound | Ki [1] [µM] | IC50 [1] [µM] | other results |
| --- | --- | --- | --- |
| Cc1ccccc1 [methyl benzene] | 8.3 | 18.6 | Silencing Efficiency (EAG response) [2]: 28.76% |
| C=CC(=C)CCCC(=C)C [alpha-myrcene] | 2.76 | 6.18 |  |
| Cc1ccc(C)c(C=O)c1 [2,5-dimethyl-benzaldehyde] | 7.12 | 15.9 |  |
| CC1=CC(=O)C(C(C)C)CC1 (centres unmarked) [3-methyl-6-(1-methylethyl)-2-cyclohexen-1-one] | 11.2 | 25 |  |
| CCCCCCCCC=O [1-nonanal] | 5.26 | 11.8 | Silencing Efficiency (EAG response) [2]: 37.28% |
| CCC/C=C/C=O [e-2-hexenal] | 2.83 | 6.33 | Silencing Efficiency (EAG response) [2]: 34.64% |
| CC(C)(C)c1cccc(C(C)(C)C)c1 [1,3-bis (1,1-dimethyl ethyl)-benzene] | 2.85 | 6.37 |  |
| CC(=O)/C=C/C1=C(C)CCCC1(C)C [trans-β-ionone] | 4.21 | 9.43 |  |
| CCCCCCC/C=C/C=O [e-2-decenal] | 2.42 | 5.41 |  |
| CC=Cc1ccc(OC)c(OC)c1 [1,2-dimethoxy-4-(1-propenyl)-benzene] | 7.68 | 17.2 |  |
| CCCCCCCCCCCCCCCC(=O)OC [methyl palmitate] |  |  | binding ability to AmelOBP2 (in words) [1]: exhibited binding ability |
| CCCCCCCCCCCCCCCC [hexadecane] | 30.6 | 68.6 | binding ability to AmelOBP2 (in words) [1]: relatively weak binding ability |
| C=C1CC/C=C(\C)CC[C@@H]2[C@@H]1CC2(C)C [β-caryophyllene] | 4.84 | 10.8 |  |
| CCCCCCCCCCCCCC [tetradecane] | 8.06 | 18 |  |
| Cc1ccc(C(C)C)cc1 [p-cymene] | 3.58 | 8.02 |  |
| CCCCCCCCCCCCCCCCCCCCC [heneicosane] | 21.7 | 48.6 | binding ability to AmelOBP2 (in words) [1]: relatively weak binding ability |
| phytol | 16.2 | 36.3 |  |
| siAmelOBP2-1: siRNA against AmelOBP2 (79 bp); F: GCAAAGUACAUGGAGUAUUTT, R: AAUACUCCAUGUACUUUGCTT (chemistry not given here) |  |  | silencing efficiency (AmelOBP2 mRNA) ([3]; 72 h after siRNA feeding): 62.86% |
| CCCCCCCCCCCCCCCCCCC [nonadecane] | 14.7 | 33 |  |
| COC(=O)c1ccccc1C(=O)OC [dimethyl phthalate] | 5.54 | 12.4 |  |
| C=C/C(C)=C/CC=C(C)C [β-ocimene] | 3.75 | 8.4 |  |

| Compound | Ki [1] [µM] | IC50 [1] [µM] | other results |
| --- | --- | --- | --- |
| CC(C)C(=O)OCC(C)(C)C(OC(=O)C(C)C)C(C)C (centres unmarked) [2,2,4-trimethyl-1,3-pentanediol diisobutyrate] | 4.92 | 11 |  |
| O=CCc1ccccc1 [benzeneacetaldehyde] | 4.55 | 10.2 |  |
| CCCCCCCCCC=O [decanal] | 3.72 | 8.32 |  |
| CCCCCCCCCCCCCCCCC [heptadecane] | 16.7 | 37.3 |  |
| c1ccc(Nc2cccc3ccccc23)cc1 [1-NPN] |  |  | Kd [4]: 2 µM |
| C=C(C)C1CCC(C)C(=O)C1 (centres unmarked) [2-methyl-5-(1-methylethenyl)-cyclohexanone] | 6.03 | 13.5 | Silencing Efficiency (EAG response) [2]: 32.48% |
| C=CC(C)(O)CCC=C(C)C (centres unmarked) [3,7-dimethyl-1,6-octadien-3-ol] | 7.01 | 15.7 |  |
| O=CCCc1ccccc1 [benzenepropanal] | 7.3 | 16.3 |  |
| CCCCCCCCCCCCCCCC(=O)OCC [hexadecanoic acid, ethyl ester] | 12.8 | 28.8 | binding ability to AmelOBP2 (in words) [1]: exhibited binding ability |
| siAmelOBP2-2: siRNA against AmelOBP2 (329 bp); F: GGAUCGCGAAUGAGUGCAUTT, R: AUGCACUCAUUCGCGAUCCTT (chemistry not given here) |  |  | silencing efficiency (AmelOBP2 mRNA) ([3]; 24 h after siRNA feeding): 58.87%; silencing efficiency (AmelOBP2 mRNA) ([3]; 48 h after siRNA feeding): 47.35%; silencing efficiency (AmelOBP2 mRNA) ([3]; 72 h after siRNA feeding): 79.83%; silencing efficiency (AmelOBP2 mRNA) ([3]; 96 h after siRNA feeding): 67.19% |
| CCCCCC=CC(C)=O [3-nonen-2-one] | 4.3 | 9.63 |  |
| hexadecenoic acid | 5.29 | 11.8 |  |
| CCCCCCCCCCCC=O [dodecanal] | 1.05 | 2.35 |  |
| O=Cc1ccccc1 [benzaldehyde] | 3.74 | 8.37 |  |
| CC1=CCC(C(C)C)=CC1 [gamma-terpinene] | 4.16 | 9.31 |  |
| Cc1cccc(C)c1 [1,3-dimethyl-benzene] | 11 | 24.6 |  |
| O=CC=Cc1ccccc1 [3-phenyl-2-propenal] | 5.69 | 12.7 |  |
| C=C(C)c1ccc(C)cc1 [1-methyl-4-(1-methylethenyl)-benzene] | 6.23 | 13.9 |  |
| CCCCCCCCCCCCCCCCCCCCCCCC [tetracosane] | 13.2 | 29.6 |  |
| CCCCC/C=C/C=O [e-2-octenal] | 7.45 | 16.7 | Silencing Efficiency (EAG response) [2]: 55.20% |
